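Five compound concentrations were applied to cells in 96-well plates for 48 hours; endpoints were derived by simple linear interpolation of the resulting dose-response curve. Here, GI50 denotes the concentration required for 50% inhibition of growth.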 Calls of active or inactive are those of the source. Cut-off read from the data, not from the text of the source: active = GI50 up to about 1.1 µM and inactive = higher.
Columns and labels:
Experiment in all cases: growth of human tumour cells (NCI), 48 h
RPMI-8226 = test system: RPMI-8226
DU-145 = test system: DU-145
HCT-116 = test system: HCT-116
UACC-62 = test system: UACC-62
NCI-H522 = test system: NCI-H522
SK-MEL-5 = test system: SK-MEL-5
COLO 205 = test system: COLO 205
SW-620 = test system: SW-620
SN12C = test system: SN12C
SF-295 = test system: SF-295
HCC 2998 = test system: HCC 2998
SNB-19 = test system: SNB-19
SF-539 = test system: SF-539
SK-MEL-2 = test system: SK-MEL-2
HOP-92 = test system: HOP-92
NCI-H460 = test system: NCI-H460
SF-268 = test system: SF-268
BT-549 = test system: BT-549
EKVX = test system: EKVX
SK-MEL-28 = test system: SK-MEL-28
U-251 = test system: U-251
OVCAR-3 = test system: OVCAR-3
MCF7 = test system: MCF7
Malme-3M = test system: Malme-3M
PC-3 = test system: PC-3
A549 = test system: A549
CCRF-CEM = test system: CCRF-CEM
CAKI-1 = test system: CAKI-1
A498 = test system: A498
HL-60 = test system: HL-60
T47D = test system: T47D
KM-20L2 = test system: KM-20L2
786-0 = test system: 786-0
TK-10 = test system: TK-10
ACHN = test system: ACHN
SNB-75 = test system: SNB-75
M14 = test system: M14
NCI/ADR-RES = test system: NCI/ADR-RES
IGROV-1 = test system: IGROV-1
MDA-MB-231 = test system: MDA-MB-231
DMS-114 = test system: DMS-114
HCT-15 = test system: HCT-15
OVCAR-5 = test system: OVCAR-5
DMS-273 = test system: DMS-273
OVCAR-8 = test system: OVCAR-8
SK-OV-3 = test system: SK-OV-3
NCI-H23 = test system: NCI-H23
DLD-1 = test system: DLD-1
NCI-H226 = test system: NCI-H226
M19-MEL = test system: M19-MEL
LOX IMVI = test system: LOX IMVI
LXFL 529 = test system: LXFL 529
MDA-N = test system: MDA-N
UO-31 = test system: UO-31
MDA-MB-435 = test system: MDA-MB-435
Hs-578T = test system: Hs-578T
MOLT-4 = test system: MOLT-4
HOP-18 = test system: HOP-18
SR = test system: SR
SNB-78 = test system: SNB-78
HOP-62 = test system: HOP-62
UACC-257 = test system: UACC-257
KM12 = test system: KM12
K562 = test system: K562
RXF 393 = test system: RXF 393
XF498 = test system: XF498
HT-29 = test system: HT-29
OVCAR-4 = test system: OVCAR-4

SMILES: COc1cc(C2C3=C(COC3=O)Oc3cc4c(cc32)OCO4)cc(OC)c1OC (centres undefined)
- GI50 (RPMI-8226): 0.0401 µM (active)
- GI50 (DU-145): 0.0256 µM (active)
- GI50 (HCT-116): < 0.0144 µM (active)
- GI50 (UACC-62): 0.0166 µM (active)
- GI50 (NCI-H522): 0.001 µM (active)
- GI50 (SK-MEL-5): 0.0198 µM (active)
- GI50 (COLO 205): 0.0333 µM (active)
- GI50 (SW-620): 0.0173 µM (active)
- GI50 (SN12C): 0.0515 µM (active)
- GI50 (SF-295): 0.0109 µM (active)
- GI50 (HCC 2998): 0.0402 µM (active)
- GI50 (SNB-19): 0.034 µM (active)
- GI50 (SF-539): 0.0218 µM (active)
- GI50 (SK-MEL-2): 0.039 µM (active)
- GI50 (HOP-92): 0.0161 µM (active)
- GI50 (NCI-H460): 0.0216 µM (active)
- GI50 (SF-268): 0.0417 µM (active)
- GI50 (BT-549): 0.245 µM (active)
- GI50 (EKVX): 0.015 µM (active)
- GI50 (SK-MEL-28): 0.00771 µM (active)
- GI50 (U-251): 0.0262 µM (active)
- GI50 (OVCAR-3): 0.025 µM (active)
- GI50 (MCF7): 0.0423 µM (active)
- GI50 (Malme-3M): 0.0828 µM (active)
- GI50 (PC-3): 0.0331 µM (active)
- GI50 (A549): 0.0354 µM (active)
- GI50 (CCRF-CEM): 0.0314 µM (active)
- GI50 (CAKI-1): 0.01 µM (active)
- GI50 (A498): 0.00488 µM (active)
- GI50 (HL-60): 0.0154 µM (active)
- GI50 (T47D): > 10 µM (inactive)
- GI50 (KM-20L2): 0.0139 µM (active)
- GI50 (786-0): 0.0333 µM (active)
- GI50 (TK-10): > 10 µM (inactive)
- GI50 (ACHN): < 0.0326 µM (active)
- GI50 (SNB-75): 0.00993 µM (active)
- GI50 (M14): 0.0326 µM (active)
- GI50 (NCI/ADR-RES): 0.0185 µM (active)
- GI50 (IGROV-1): 0.0489 µM (active)
- GI50 (MDA-MB-231): 0.0667 µM (active)
- GI50 (DMS-114): 0.00962 µM (active)
- GI50 (HCT-15): < 0.0158 µM
- GI50 (OVCAR-5): 0.274 µM (active)
- GI50 (DMS-273): 0.01 µM (active)
- GI50 (OVCAR-8): 0.0335 µM (active)
- GI50 (SK-OV-3): < 0.0144 µM (active)
- GI50 (NCI-H23): 0.0441 µM (active)
- GI50 (DLD-1): 0.022 µM (active)
- GI50 (NCI-H226): 0.123 µM (active)
- GI50 (M19-MEL): 0.0269 µM (active)
- GI50 (LOX IMVI): < 0.0164 µM (active)
- GI50 (LXFL 529): 0.00718 µM (active)
- GI50 (MDA-N): 0.0219 µM (active)
- GI50 (UO-31): 0.139 µM (active)
- GI50 (MDA-MB-435): 0.0295 µM (active)
- GI50 (Hs-578T): 0.0521 µM (active)
- GI50 (MOLT-4): 0.024 µM (active)
- GI50 (HOP-18): 0.16 µM (active)
- GI50 (SR): 0.0424 µM (active)
- GI50 (SNB-78): 0.00849 µM (active)
- GI50 (HOP-62): < 0.0255 µM (active)
- GI50 (UACC-257): 0.0673 µM (active)
- GI50 (KM12): 0.0112 µM (active)
- GI50 (K562): 0.0108 µM (active)
- GI50 (RXF 393): 0.0106 µM (active)

SMILES: CC(=O)N/C(=C\c1ccccc1/C=C(\NC(C)=O)c1nc2cc(C)c(C)cc2[nH]1)c1nc2cc(C)c(C)cc2[nH]1
- GI50 (RPMI-8226): 2.04 µM (inactive)
- GI50 (HCT-116): 5.48 µM (inactive)
- GI50 (UACC-62): 15.6 µM (inactive)
- GI50 (NCI-H522): 1.73 µM (inactive)
- GI50 (SK-MEL-5): 17.1 µM (inactive)
- GI50 (COLO 205): 19.5 µM (inactive)
- GI50 (SW-620): 31.1 µM (inactive)
- GI50 (SN12C): 17.1 µM (inactive)
- GI50 (SNB-19): 6.81 µM (inactive)
- GI50 (SF-539): 19.7 µM (inactive)
- GI50 (SK-MEL-2): 22.1 µM (inactive)
- GI50 (HOP-92): 8.36 µM (inactive)
- GI50 (NCI-H460): 26.8 µM (inactive)
- GI50 (SF-268): 24.1 µM (inactive)
- GI50 (EKVX): 12.3 µM (inactive)
- GI50 (SK-MEL-28): 7.43 µM (inactive)
- GI50 (U-251): 6.59 µM (inactive)
- GI50 (OVCAR-3): 3.73 µM (inactive)
- GI50 (Malme-3M): 21.7 µM (inactive)
- GI50 (A549): 28 µM (inactive)
- GI50 (CCRF-CEM): 26.7 µM (inactive)
- GI50 (CAKI-1): 11.5 µM (inactive)
- GI50 (A498): 42.4 µM (inactive)
- GI50 (XF498): 15.6 µM (inactive)
- GI50 (KM-20L2): 29.4 µM (inactive)
- GI50 (786-0): 18.7 µM (inactive)
- GI50 (TK-10): 24.4 µM (inactive)
- GI50 (HT-29): 34.8 µM (inactive)
- GI50 (ACHN): 14.8 µM (inactive)
- GI50 (SNB-75): 13.7 µM (inactive)
- GI50 (M14): 9.84 µM (inactive)
- GI50 (IGROV-1): 26.5 µM (inactive)
- GI50 (DMS-114): 0.23 µM (active)
- GI50 (HCT-15): > 10 µM
- GI50 (OVCAR-5): 36.8 µM (inactive)
- GI50 (DMS-273): 2.56 µM (inactive)
- GI50 (OVCAR-8): 19.2 µM (inactive)
- GI50 (SK-OV-3): 34.4 µM (inactive)
- GI50 (NCI-H23): 8.17 µM (inactive)
- GI50 (DLD-1): 19.2 µM (inactive)
- GI50 (NCI-H226): 25.8 µM (inactive)
- GI50 (M19-MEL): 10.7 µM (inactive)
- GI50 (LXFL 529): 17.1 µM (inactive)
- GI50 (UO-31): 3.22 µM (inactive)
- GI50 (MOLT-4): 20.3 µM (inactive)
- GI50 (SR): 0.689 µM (active)
- GI50 (SNB-78): 10.7 µM (inactive)
- GI50 (HOP-62): 14.2 µM (inactive)
- GI50 (KM12): 11.8 µM (inactive)
- GI50 (K562): 28.6 µM (inactive)

SMILES: CC(/C=C/c1ncccc1OCCCCCC(=O)O)=N\NC1=NCCN1
- GI50 (RPMI-8226): > 100 µM (inactive)
- GI50 (HCT-116): > 100 µM (inactive)
- GI50 (UACC-62): > 100 µM (inactive)
- GI50 (NCI-H522): > 100 µM (inactive)
- GI50 (COLO 205): > 100 µM (inactive)
- GI50 (SW-620): > 100 µM (inactive)
- GI50 (SN12C): > 100 µM (inactive)
- GI50 (SF-295): > 100 µM (inactive)
- GI50 (HCC 2998): > 100 µM (inactive)
- GI50 (SNB-19): > 100 µM (inactive)
- GI50 (SF-539): > 100 µM (inactive)
- GI50 (SK-MEL-2): > 100 µM (inactive)
- GI50 (HOP-92): > 100 µM (inactive)
- GI50 (NCI-H460): > 100 µM (inactive)
- GI50 (SF-268): > 100 µM (inactive)
- GI50 (EKVX): > 100 µM (inactive)
- GI50 (SK-MEL-28): > 100 µM (inactive)
- GI50 (OVCAR-3): > 100 µM (inactive)
- GI50 (Malme-3M): > 100 µM (inactive)
- GI50 (A549): > 100 µM (inactive)
- GI50 (CCRF-CEM): > 100 µM (inactive)
- GI50 (CAKI-1): > 100 µM (inactive)
- GI50 (OVCAR-4): > 100 µM (inactive)
- GI50 (HL-60): > 100 µM (inactive)
- GI50 (XF498): > 100 µM (inactive)
- GI50 (KM-20L2): > 100 µM (inactive)
- GI50 (TK-10): 65.3 µM (inactive)
- GI50 (HT-29): > 100 µM (inactive)
- GI50 (ACHN): > 100 µM (inactive)
- GI50 (M14): > 100 µM (inactive)
- GI50 (IGROV-1): > 100 µM (inactive)
- GI50 (DMS-114): > 100 µM (inactive)
- GI50 (HCT-15): > 100 µM
- GI50 (OVCAR-5): > 100 µM (inactive)
- GI50 (DMS-273): > 100 µM (inactive)
- GI50 (OVCAR-8): > 100 µM (inactive)
- GI50 (SK-OV-3): > 100 µM (inactive)
- GI50 (DLD-1): > 100 µM (inactive)
- GI50 (NCI-H226): > 100 µM (inactive)
- GI50 (M19-MEL): > 100 µM (inactive)
- GI50 (LOX IMVI): > 100 µM (inactive)
- GI50 (LXFL 529): > 100 µM (inactive)
- GI50 (UO-31): > 100 µM (inactive)
- GI50 (MOLT-4): > 100 µM (inactive)
- GI50 (SR): > 100 µM (inactive)
- GI50 (HOP-62): > 100 µM (inactive)
- GI50 (KM12): > 100 µM (inactive)
- GI50 (K562): > 100 µM (inactive)
- GI50 (RXF 393): 68.1 µM (inactive)
